Test results: patent US9932355B2, “2,5,6,7-tetrasubstituted thiazolo[4,5-b]pyridine derivatives and use thereof” (KYUNGPOOK NATIONAL UNIVERSITY INDUSTRY-ACADEMIC COOPERATION …, priority 2014, dated 2018)

Test system: CLP-induced sepsis mouse model
Assay: Survival rate of CLP-induced sepsis mouse model
Type: in vivo
Settings: male ICR mice, CLP surgery; tail intravenous injection 12 and 50 hours after surgery; FIG. 1
Method: An anti-inflammation effect of the prepared compound was tested by a survival rate of the sepsis mouse model induced by peritonitis. A CLP-induced sepsis mouse model is an in vivo method for investigating an anti-inflammation action, and the manufacturing method of the mouse model is a widely used experiment method [Wang H, Nat. Med., 2004, 10, 1216-1221]. 40 six-week-old male ICR mice were divided into 10 mice per each group, and the survival rate was observed.
First, after the male mouse was anesthetized by respiration using isoflurane, the abdomen of the mouse was cut in the middle by approximately 2 cm to take out an appendix adjacent to intestines, and the appendix was tied up at a part apart from 0.5 mm from the end of the appendix with a 3.0-silk suture, pierced once with a 22-gauge needle, and sutured the cut part with a 4.0 silk suture. An abdomen of a sham mouse was cut and sutured without tie-up or piercing of the appendix, and after 12 and 50 hours of the surgery, the prepared compound was administered by mouse tail intravenous injection.

COc1ccc(CNc2nc3nc4c(c(-c5ccc(OC)cc5)c3s2)CCCC4)cc1 [Compound 1-65, N-(4-methoxybenzyl)-9-(4-methoxyphenyl)-5,6,7,8-tetrahydrothiazolo[4,5-b]quinoline-2-amine]
survival rate increased, compared to the only CLP-treated group: 60%
